{
  "source": "the supplement of paper PMC10307832",
  "test_in_all_cases": "relative viability (nuclei count vs DMSO), 5 days (fraction); higher = more cells survive",
  "key": {"HCC-15": {"tested_on": "HCC-15", "method_in_brief": "(§1)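 The day after seeding in 1536-well plates, lung cancer cell lines were treated by pin tool with a single drug, or with a fixed anchor-drug dose together with five library-drug doses (not always all listed) in √10 steps. After 5 days, a combined fix-and-stain solution (final 0.05% Triton X-100, 1% formaldehyde, 1 ug/ml Hoechst) was added. Nuclei counted on 4× images gave relative viability as treated counts over vehicle counts, reported as the median of duplicate plates.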"}, "HCC-827": {"tested_on": "HCC-827", "method_in_brief": "as §1"}, "COR-L 105": {"tested_on": "COR-L 105", "method_in_brief": "as §1"}, "HCC-44": {"tested_on": "HCC-44", "method_in_brief": "as §1"}, "EPLC-272H": {"tested_on": "EPLC-272H", "method_in_brief": "as §1"}, "NCI-H522": {"tested_on": "NCI-H522", "method_in_brief": "as §1"}, "SK-MES-1": {"tested_on": "SK-MES-1", "method_in_brief": "as §1"}, "HCC-78": {"tested_on": "HCC-78", "method_in_brief": "as §1"}, "NCI-H1648": {"tested_on": "NCI-H1648", "method_in_brief": "as §1"}, "NCI-H2009": {"tested_on": "NCI-H2009", "method_in_brief": "as §1"}, "NCI-H596": {"tested_on": "NCI-H596", "method_in_brief": "as §1"}, "RERF-LC-KJ": {"tested_on": "RERF-LC-KJ", "method_in_brief": "as §1"}, "NCI-H661": {"tested_on": "NCI-H661", "method_in_brief": "as §1"}, "SW 1573": {"tested_on": "SW 1573", "method_in_brief": "as §1"}, "NCI-H650": {"tested_on": "NCI-H650", "method_in_brief": "as §1"}, "LCLC-97TM1": {"tested_on": "LCLC-97TM1", "method_in_brief": "as §1"}, "NCI-H1395": {"tested_on": "NCI-H1395", "method_in_brief": "as §1"}, "NCI-H1792": {"tested_on": "NCI-H1792", "method_in_brief": "as §1"}, "NCI-H647": {"tested_on": "NCI-H647", "method_in_brief": "as §1"}, "HCC-366": {"tested_on": "HCC-366", "method_in_brief": "as §1"}, "NCI-H1993": {"tested_on": "NCI-H1993", "method_in_brief": "as §1"}, "NCI-H358": {"tested_on": "NCI-H358", "method_in_brief": "as §1"}},
  "data": [
    {"molecule": "Oc1nc(-c2ccc(C(F)(F)F)cc2)nc2c1CSCC2", "note": "[XAV939] + Nc1nc2[nH]cc(CCc3ccc(C(=O)N[C@@H](CCC(=O)O)C(=O)O)cc3)c2c(=O)[nH]1 [Pemetrexed] (partner 0.2 µM)", "values": [
      {"measurement": "relative viability", "setting": "HCC-15; first compound 0.08 µM", "result": 0.238},
      {"measurement": "relative viability", "setting": "HCC-15; first compound 0.253 µM", "result": 0.214},
      {"measurement": "relative viability", "setting": "HCC-15; first compound 0.8 µM", "result": 0.241},
      {"measurement": "relative viability", "setting": "HCC-15; first compound 2.53 µM", "result": 0.201},
      {"measurement": "relative viability", "setting": "HCC-827; first compound 0.08 µM", "result": 0.275},
      {"measurement": "relative viability", "setting": "HCC-827; first compound 0.253 µM", "result": 0.268},
      {"measurement": "relative viability", "setting": "HCC-827; first compound 0.8 µM", "result": 0.254},
      {"measurement": "relative viability", "setting": "HCC-827; first compound 2.53 µM", "result": 0.245},
      {"measurement": "relative viability", "setting": "COR-L 105; first compound 0.08 µM", "result": 1.09},
      {"measurement": "relative viability", "setting": "COR-L 105; first compound 0.253 µM", "result": 0.916},
      {"measurement": "relative viability", "setting": "COR-L 105; first compound 0.8 µM", "result": 1.03},
      {"measurement": "relative viability", "setting": "COR-L 105; first compound 2.53 µM", "result": 0.875},
      {"measurement": "relative viability", "setting": "HCC-44; first compound 0.08 µM", "result": 0.614},
      {"measurement": "relative viability", "setting": "HCC-44; first compound 0.253 µM", "result": 0.59},
      {"measurement": "relative viability", "setting": "HCC-44; first compound 0.8 µM", "result": 0.636},
      {"measurement": "relative viability", "setting": "HCC-44; first compound 2.53 µM", "result": 0.616},
      {"measurement": "relative viability", "setting": "EPLC-272H; first compound 0.08 µM", "result": 0.312},
      {"measurement": "relative viability", "setting": "EPLC-272H; first compound 0.253 µM", "result": 0.238},
      {"measurement": "relative viability", "setting": "EPLC-272H; first compound 0.8 µM", "result": 0.511},
      {"measurement": "relative viability", "setting": "EPLC-272H; first compound 2.53 µM", "result": 0.308},
      {"measurement": "relative viability", "setting": "NCI-H522; first compound 0.08 µM", "result": 1.04},
      {"measurement": "relative viability", "setting": "NCI-H522; first compound 0.253 µM", "result": 0.88},
      {"measurement": "relative viability", "setting": "NCI-H522; first compound 0.8 µM", "result": 0.964},
      {"measurement": "relative viability", "setting": "NCI-H522; first compound 2.53 µM", "result": 0.985},
      {"measurement": "relative viability", "setting": "SK-MES-1; first compound 0.08 µM", "result": 1.01},
      {"measurement": "relative viability", "setting": "SK-MES-1; first compound 0.253 µM", "result": 0.778},
      {"measurement": "relative viability", "setting": "SK-MES-1; first compound 0.8 µM", "result": 0.835},
      {"measurement": "relative viability", "setting": "SK-MES-1; first compound 2.53 µM", "result": 0.768},
      {"measurement": "relative viability", "setting": "HCC-78; first compound 0.08 µM", "result": 0.881},
      {"measurement": "relative viability", "setting": "HCC-78; first compound 0.253 µM", "result": 0.829},
      {"measurement": "relative viability", "setting": "HCC-78; first compound 0.8 µM", "result": 0.846},
      {"measurement": "relative viability", "setting": "HCC-78; first compound 2.53 µM", "result": 0.942},
      {"measurement": "relative viability", "setting": "NCI-H1648; first compound 0.253 µM", "result": 0.701},
      {"measurement": "relative viability", "setting": "NCI-H1648; first compound 0.8 µM", "result": 0.667},
      {"measurement": "relative viability", "setting": "NCI-H1648; first compound 2.53 µM", "result": 0.722},
      {"measurement": "relative viability", "setting": "NCI-H2009; first compound 0.08 µM", "result": 1.22},
      {"measurement": "relative viability", "setting": "NCI-H2009; first compound 0.253 µM", "result": 1.08},
      {"measurement": "relative viability", "setting": "NCI-H2009; first compound 0.8 µM", "result": 0.979},
      {"measurement": "relative viability", "setting": "NCI-H2009; first compound 2.53 µM", "result": 0.978},
      {"measurement": "relative viability", "setting": "NCI-H596; first compound 0.08 µM", "result": 0.544},
      {"measurement": "relative viability", "setting": "NCI-H596; first compound 0.253 µM", "result": 0.488},
      {"measurement": "relative viability", "setting": "NCI-H596; first compound 0.8 µM", "result": 0.588},
      {"measurement": "relative viability", "setting": "NCI-H596; first compound 2.53 µM", "result": 0.435},
      {"measurement": "relative viability", "setting": "RERF-LC-KJ; first compound 0.08 µM", "result": 0.493},
      {"measurement": "relative viability", "setting": "RERF-LC-KJ; first compound 0.253 µM", "result": 0.464},
      {"measurement": "relative viability", "setting": "RERF-LC-KJ; first compound 0.8 µM", "result": 0.502},
      {"measurement": "relative viability", "setting": "RERF-LC-KJ; first compound 2.53 µM", "result": 0.453},
      {"measurement": "relative viability", "setting": "NCI-H661; first compound 0.08 µM", "result": 0.947},
      {"measurement": "relative viability", "setting": "NCI-H661; first compound 0.253 µM", "result": 0.868},
      {"measurement": "relative viability", "setting": "NCI-H661; first compound 0.8 µM", "result": 0.914},
      {"measurement": "relative viability", "setting": "NCI-H661; first compound 2.53 µM", "result": 0.854},
      {"measurement": "relative viability", "setting": "SW 1573; first compound 0.08 µM", "result": 0.876},
      {"measurement": "relative viability", "setting": "SW 1573; first compound 0.253 µM", "result": 0.659},
      {"measurement": "relative viability", "setting": "SW 1573; first compound 0.8 µM", "result": 0.816},
      {"measurement": "relative viability", "setting": "SW 1573; first compound 2.53 µM", "result": 0.731},
      {"measurement": "relative viability", "setting": "NCI-H650; first compound 0.08 µM", "result": 0.973},
      {"measurement": "relative viability", "setting": "NCI-H650; first compound 0.253 µM", "result": 1},
      {"measurement": "relative viability", "setting": "NCI-H650; first compound 0.8 µM", "result": 0.96},
      {"measurement": "relative viability", "setting": "NCI-H650; first compound 2.53 µM", "result": 0.816},
      {"measurement": "relative viability", "setting": "LCLC-97TM1; first compound 0.08 µM", "result": 0.234},
      {"measurement": "relative viability", "setting": "LCLC-97TM1; first compound 0.253 µM", "result": 0.179},
      {"measurement": "relative viability", "setting": "LCLC-97TM1; first compound 2.53 µM", "result": 0.162},
      {"measurement": "relative viability", "setting": "NCI-H1395; first compound 0.08 µM", "result": 0.875},
      {"measurement": "relative viability", "setting": "NCI-H1395; first compound 0.253 µM", "result": 0.832},
      {"measurement": "relative viability", "setting": "NCI-H1395; first compound 0.8 µM", "result": 0.805},
      {"measurement": "relative viability", "setting": "NCI-H1395; first compound 2.53 µM", "result": 0.908},
      {"measurement": "relative viability", "setting": "NCI-H1792; first compound 0.08 µM", "result": 0.967},
      {"measurement": "relative viability", "setting": "NCI-H1792; first compound 0.253 µM", "result": 0.726},
      {"measurement": "relative viability", "setting": "NCI-H1792; first compound 0.8 µM", "result": 0.813},
      {"measurement": "relative viability", "setting": "NCI-H1792; first compound 2.53 µM", "result": 0.72},
      {"measurement": "relative viability", "setting": "NCI-H647; first compound 0.08 µM", "result": 0.168},
      {"measurement": "relative viability", "setting": "NCI-H647; first compound 0.253 µM", "result": 0.179},
      {"measurement": "relative viability", "setting": "NCI-H647; first compound 0.8 µM", "result": 0.166},
      {"measurement": "relative viability", "setting": "NCI-H647; first compound 2.53 µM", "result": 0.146},
      {"measurement": "relative viability", "setting": "HCC-366; first compound 0.08 µM", "result": 0.179},
      {"measurement": "relative viability", "setting": "HCC-366; first compound 0.253 µM", "result": 0.131},
      {"measurement": "relative viability", "setting": "HCC-366; first compound 0.8 µM", "result": 0.142},
      {"measurement": "relative viability", "setting": "HCC-366; first compound 2.53 µM", "result": 0.117},
      {"measurement": "relative viability", "setting": "NCI-H1993; first compound 0.08 µM", "result": 0.575},
      {"measurement": "relative viability", "setting": "NCI-H1993; first compound 0.253 µM", "result": 0.471},
      {"measurement": "relative viability", "setting": "NCI-H1993; first compound 0.8 µM", "result": 0.536},
      {"measurement": "relative viability", "setting": "NCI-H1993; first compound 2.53 µM", "result": 0.541},
      {"measurement": "relative viability", "setting": "NCI-H358; first compound 0.08 µM", "result": 0.168},
      {"measurement": "relative viability", "setting": "NCI-H358; first compound 0.253 µM", "result": 0.162},
      {"measurement": "relative viability", "setting": "NCI-H358; first compound 0.8 µM", "result": 0.165},
      {"measurement": "relative viability", "setting": "NCI-H358; first compound 2.53 µM", "result": 0.171}
    ]}
  ]
}
